Data published in patent US7090985B2, “Methods for the identification of agents for the treatment of seizures, neurological diseases, endocrinopathies and hormonal diseases” (UCB, S.A., priority 2002, dated 2006).

Experiments:
[1] = adjunctive therapy, adults; cited from earlier work
[2] = molecular target: T1, levetiracetam binding site (LBS) (Rattus norvegicus, UniProt Q02563); parameters: from tissue; host or cells: rat brain (crude membranes; 25 µm brain slices for autoradiography); settings: cited from earlier work
human SV2A = molecular target: T2, human SV2A (Homo sapiens, UniProt Q7L0J3); assay: 3H-30889 intact cell binding to COS-7 cells transfected with SV2A; settings: displacement of 3H-30889, intact transfected COS-7 cells
T2 construct: expressed in transfected cells; host or cells: COS-7 cells, transient transfection (Lipofectamine 2000), vector pDEST 12.2
Description: The human SV2A coding region was transferred from the pDONR GATEWAY cloning vector to a pDEST 12.2 Gateway expression vector. This vector has a CMV promoter driving the introduced gene, and an SV40 ori, which allows very high levels of replication in the COS-7 cell line, which contains the large T antigen. In addition, the human SV2A coding region was transferred into a pDEST 40 Gateway expression vector. This vector is very similar to the 12.2 vector above, with a CMV promoter driving expression of hSV2A, and an SV40 ori, and a Neomycin resistance gene.
Lipofectamine 2000 (Invitrogen) transfection reagent was used to transfect DNA into 90% confluent COS-7 cells. Also, the same reagent was used to transfect the hSV2A containing vector into the PC12a cell line, and selecting for antibiotic resistance. Anti-SV2 polyclonal antibody (CalBiochem) was used to test for expression in either transfected COS-7 cells, or transfected PC 12a cells, of the SV2A product. Lysates of the COS-7 cells were collected at 18 hrs after transfection on an SDS-PAGE gel, transferred to a membrane, and probed with a polyclonal antibody against SV2A, in comparison to crude rat brain membranes (FIG. 12A). Also shown are lysates from a non-transfected COS-7 cells, non-transfected PC12a cells (low in LBS), PC12bs cells (high in LBS), or PC 12a cells transfected with hSV2A (FIG. 12B). No labeling of protein bands is observed in the untransfected COS-7 control, while the transfected COS-7 cells show multiple bands, with most density in the range of 80–120 kD, perhaps due to multiple glycosylation states of the expressed protein. […]
In a binding experiment, specific binding was measured of ^3H-30889 to COS-7 cells that have either been transfected with SV2A-12.2, or as controls, a β-gal expressing vector, or cells that have not been transfected (FIG. 13). […] The cells were lysed on the plate, transferred to scintillation vials with scintillation fluid and counted for ^3H decay emission. […]

[3] = system: audiogenic-susceptible mouse; settings: cited from earlier work
[4] = system: peripheral tissues including heart, kidneys, spleen, pancreas, adrenals, lungs and liver; settings: radiolabel studies; cited from earlier work
COS-7 = assay: [3H]ucb 30889 binding in cell types; settings: untransfected COS-7 cell line
Method: (§1) To identify and characterize the LBS in situ, ^[3H]ucb 30889 was used to map the LBS within the brain and to study both its cellular and subcellular distribution. […] Binding assays with rat brain membranes and various neuronal cell lines were performed under similar conditions. […] For photolabeling, membranes were incubated with […] ^[3H]ucb 30889 for 120 min at 4° C. in the same buffer, followed by irradiation with UV-light for 30 min.
(§2) Abbreviation: nd, not detected.
In addition, a PC12 cell line subclone, PC12a, which is low in LBS, was used to establish a pool of PC12 cells expressing hSV2A under stable antibiotic selection.

peripheral tissues = assay: [3H]ucb 30889 specific binding in peripheral tissues; settings: 150 μg of protein/assay, 1.3 nM radioligand; limit of detection Bmax 200 fmol/mg protein
Method: The limit of detection under the experimental conditions (150 μg of protein/assay and 1.3 nM of radioligand) was a Bmax of 200 fmol/mg protein.

PC12 = assay: [3H]ucb 30889 binding in cell types; parameters: species or system rat
Method: as §1, §2

[5] = molecular target: T1, levetiracetam binding site (LBS); assay: [3H]ucb 30889 binding on crude rat brain membranes (kinetics, saturation, competition)

T2 sequence (Q7L0J3 whole entry): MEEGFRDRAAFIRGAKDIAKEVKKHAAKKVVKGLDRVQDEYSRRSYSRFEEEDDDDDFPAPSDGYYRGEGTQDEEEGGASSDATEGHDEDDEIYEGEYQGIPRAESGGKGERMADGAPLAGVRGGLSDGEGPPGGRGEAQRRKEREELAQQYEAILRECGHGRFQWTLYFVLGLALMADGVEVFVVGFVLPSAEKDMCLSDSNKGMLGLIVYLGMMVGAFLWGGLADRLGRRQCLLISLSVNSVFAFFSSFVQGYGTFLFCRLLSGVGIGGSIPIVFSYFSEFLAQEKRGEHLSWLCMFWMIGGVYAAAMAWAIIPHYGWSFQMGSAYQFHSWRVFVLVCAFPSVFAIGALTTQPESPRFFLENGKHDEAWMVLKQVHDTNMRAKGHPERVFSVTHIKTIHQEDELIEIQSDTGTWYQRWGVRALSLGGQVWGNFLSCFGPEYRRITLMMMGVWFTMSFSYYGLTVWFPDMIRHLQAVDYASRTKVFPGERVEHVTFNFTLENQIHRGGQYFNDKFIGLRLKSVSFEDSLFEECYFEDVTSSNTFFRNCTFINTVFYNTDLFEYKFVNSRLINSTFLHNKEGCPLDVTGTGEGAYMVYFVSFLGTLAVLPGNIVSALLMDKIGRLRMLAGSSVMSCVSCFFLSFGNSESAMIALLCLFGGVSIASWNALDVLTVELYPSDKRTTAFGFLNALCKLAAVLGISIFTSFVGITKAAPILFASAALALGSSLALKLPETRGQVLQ
T1 sequence (Q02563 whole entry): as the sequence (Q7L0J3 whole entry) above, with D53E, S62A, T71A, E144D, A154T, G440S, S482A, I572V, M634L counted along it

SMILES	efficacy in controlling refractory partial seizures [1]	tolerability [1]	affinity ([2]; rat hippocampal membranes)	binding capacity ([2]; rat hippocampal membranes)	IC50 against SV2A expressed in COS-7 cells (rank order) (human SV2A)	suppression of seizures [3]	specific binding [4]	binding (COS-7)	specific binding (peripheral tissues)	Bmax (PC12) [sites/cell]	Kd (PC12) [nM]	Kd [5] [nM]	Ki [5] [nM]	times less affinity for the LBS than levetiracetam ([2]; rat brain membranes)
CC[C@@H](C(N)=O)N1CCCC1=O [levetiracetam, (S)-α-ethyl-2-oxo-1-pyrrolidine acetamide]	effective	well tolerated	modest affinity	high binding capacity	same rank order as seen in studies of LBS in rat brain	unexpected potent ability	no specific binding	–	–	–	–	–	–	–
CC[C@@H](C(N)=O)N1CC(c2cccc(N=[N+]=[N-])c2)CC1=O (stereo partly shown) [ucb 30889]	–	–	–	–	same rank order as seen in studies of LBS in rat brain	–	–	no binding above background	could not be detected	79000	50	42	79.4	–
CC[C@H](C(N)=O)N1CCCC1=O [ucb L060]	–	–	–	–	same rank order as seen in studies of LBS in rat brain	–	–	–	–	–	–	–	–	about 1000 times
